This is an account of results in article PMC9191221 (Iranian Journal of Pharmaceutical Research : IJPR, 2022).

The target of the assay is EGFR^T790M (Homo sapiens, UniProt P00533, T790M). As to the kind of experiment: EGFR-TK assay kit / ADP-Glo kinase assay. Type of assay: biochemical. As to conditions: tested in triplicate. A general note: ADP-Glo first removes unused ATP, then detects ADP through luciferase.

“And” between values parts separate entries of the source, which are not always exact repeats. Equal values may be shown once.

EGFR^T790M, sequence (P00533 25-1210 T790M): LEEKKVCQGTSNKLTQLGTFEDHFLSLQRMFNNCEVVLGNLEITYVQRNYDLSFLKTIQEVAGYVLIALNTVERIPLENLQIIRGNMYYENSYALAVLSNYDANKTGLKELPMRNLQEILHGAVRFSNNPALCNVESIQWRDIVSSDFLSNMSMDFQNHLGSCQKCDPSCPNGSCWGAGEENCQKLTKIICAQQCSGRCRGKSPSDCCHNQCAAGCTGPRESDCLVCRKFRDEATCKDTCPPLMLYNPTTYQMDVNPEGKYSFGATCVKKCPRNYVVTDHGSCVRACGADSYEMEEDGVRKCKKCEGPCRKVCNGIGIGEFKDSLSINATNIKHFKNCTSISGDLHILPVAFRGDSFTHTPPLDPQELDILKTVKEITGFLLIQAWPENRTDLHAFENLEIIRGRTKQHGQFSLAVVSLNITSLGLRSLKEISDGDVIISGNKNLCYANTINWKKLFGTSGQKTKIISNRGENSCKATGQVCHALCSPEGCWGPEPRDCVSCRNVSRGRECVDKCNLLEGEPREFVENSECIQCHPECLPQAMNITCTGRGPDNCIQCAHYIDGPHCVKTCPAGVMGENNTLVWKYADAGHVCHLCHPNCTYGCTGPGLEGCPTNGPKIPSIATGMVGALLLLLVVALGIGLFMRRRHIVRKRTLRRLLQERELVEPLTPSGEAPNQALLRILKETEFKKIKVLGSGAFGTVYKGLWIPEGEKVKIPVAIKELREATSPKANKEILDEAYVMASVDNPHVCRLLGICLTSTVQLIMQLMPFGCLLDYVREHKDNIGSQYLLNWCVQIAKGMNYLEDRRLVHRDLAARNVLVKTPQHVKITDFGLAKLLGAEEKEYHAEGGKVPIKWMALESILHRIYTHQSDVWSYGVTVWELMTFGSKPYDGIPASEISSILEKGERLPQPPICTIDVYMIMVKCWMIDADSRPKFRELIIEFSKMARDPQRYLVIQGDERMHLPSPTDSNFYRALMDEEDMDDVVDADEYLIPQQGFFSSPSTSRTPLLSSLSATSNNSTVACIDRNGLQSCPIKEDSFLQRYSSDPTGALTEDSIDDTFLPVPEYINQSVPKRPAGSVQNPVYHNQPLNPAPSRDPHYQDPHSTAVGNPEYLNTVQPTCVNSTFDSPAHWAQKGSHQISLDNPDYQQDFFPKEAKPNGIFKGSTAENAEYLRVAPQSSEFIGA

For orientation: IC50 means the point on the concentration scale where inhibition reaches its midpoint. Low readings indicate greater potency in that assay, high ones weaker potency in that assay. For the compound `O=c1nc(NCc2ccccc2Cl)[nH]c2ccc(Oc3ccccc3)cc12` [Compound 8b, 2-((2-Chlorobenzyl)amino)-6-phenoxyquinazolin-4(1H)-one], the 50% inhibitory concentration (IC50) is 0.37 nM and 1.37 nM.
